Results on three molecules are retold here after article PMC11369877 (Therapeutic Advances in Medical Oncology, 2024).

The conditions of data set [1]: human, in vivo.
The test system of the next data set is Asian patients. The conditions noted are these: palbociclib plus letrozole, PALOMA-4 trial; cited from earlier work.

In the case of `N#Cc1ccc(C(c2ccc(C#N)cc2)n2cncn2)cc1` [letrozole], the “geometric mean Rac,AUC” value in data set [1] is 6.25–6.41.

On to `CC(C)(C#N)c1cc(Cn2cncn2)cc(C(C)(C)C#N)c1` [anastrozole], for which, in data set [1], the “geometric mean Rac,AUC” value is reported as 3.66–4.15.

As for `CC(=O)c1c(C)c2cnc(Nc3ccc(N4CCNCC4)cn3)nc2n(C2CCCC2)c1=O` [palbociclib], in the data set with Asian patients, the “neutropenia, grade 3” value was 72% and the “neutropenia, grade 4” value was 12.5%.
